Experimental data: publication PMC8346995, “Synthesis, Characterization, In Vitro Anticancer Potentiality, and Antimicrobial Activities of Novel Peptide–Glycyrrhetinic-Acid-Based Derivatives” (Molecules, 2021)
Converted amounts (≈) assume the structure as drawn. Residues, ends and D or L forms follow the SMILES beside them. *: point of attachment. X1 = CC1(C(=O)*)CCC2(C)CCC3(C)C(=CC(=O)C4C5(C)CCC(O)C(C)(C)C5CCC43C)C2C1

Columns and labels:
Bax = test: Estimation of Bax level in MCF-7 cells; format: cell-based, human; settings: MCF-7 cells treated at IC50 for 24 h; untreated 65.50 Pg/mL
Excerpt: (§1) The extrinsic pathway (death receptor) and the intrinsic pathway (mitochondrial route) are the main two routes that control a cell during apoptosis. The Bcl-2 protein introduces a central role in tumor growth or suppression the intrinsic apoptotic pathway. Conversely, the pro-apoptotic Bax acts essentially to enhance the process of cell apoptosis. Increasing the level of the anti-apoptotic Bcl-2 within the cancerous cell boosts the cell survival through inhibiting apoptosis. Accordingly, a balance situation between these two proteins determines the cell fate. Furthermore, p53 serves as a transcription factor acting as a tumor suppressor protein. This protein is expressed due to various cellular stresses such as DNA disruption. It is usually mutated in human cancers. The p53 pathway mediates either cell cycle arrest or apoptosis controlling the expression of Bcl-2 and Bax genes. Thus, since compound 5 produced the most promising cytotoxic activity against breast cancer cell lines with a safety profile against the normal cells, it was of interest to study its impact on the regulation of the oncogenic markers Bax, Bcl-2, and p53. […]
The levels of Bax protein were evaluated according to the reported method. […] Then, the reaction was terminated by adding acid, and optical density of the produced color was measured at 450 nm.

caspase-3 = test: Human CASP-3 (caspase-3) estimation in MCF-7 cells; format: cell-based; settings: MCF-7 cells treated at IC50 for 24 h; untreated 162 ng/mL
caspase-7 = test: Human CASP-7 (caspase-7) estimation in MCF-7 cells (ELISA); format: cell-based; settings: for level of caspase-7: MCF-7 cells treated at IC50 for 24 h, untreated 0.3 ng/mL
Procedure: (§2) Caspases are a family of cysteine proteases that are responsible for launching the programmed cell death (apoptosis). […] Cell shrinkage, chromatin condensation, and DNA fragmentation are all apoptosis events, which need the involvement of caspase-7and caspase-3 [48, 54, 56].
The micro-ELISA plate provided in this kit pre-coated with CASP-7-specific antibody. A biotinylated CASP7 antibody and Avidin–horseradish p eroxidase (HRP) conjugate was added. Aspire the excess components. The substrate solution was added. Wells that contain CASP-7, biotinylated detection antibody, and Avidin-HRP conjugate will appear blue in color. The color turns yellow followed the addition of sulfuric acid solution. The optical density (OD) was measured at a wavelength of 450 nm ± 2 nm.

[1] = test system: human liver cancer (HepG-2) cell line; test: MTT cytotoxicity assay, liver HepG-2 cancer cell line; format: cell-based; settings: Homo sapiens, HepG2; MTT, mean of three replicates; read-out: IC50 (µg/mL) ± SD HepG-2
Procedure: (§3) Accordingly, all the newly synthesized GA-based peptides except 1 and 6 were screened for their cytotoxicity against three different human cancer cell lines: MCF-7, HCT-116, and HepG-2 cell lines at different concentrations (10, 5, 2.5, 1.25, and 0.625 µg/mL).
(§4) Human breast MCF-7, colon HCT-116, and liver HepG-2 carcinoma cell line were taken from Vacsera (Giza, Egypt). The culture was retained in RPMI 1640 medium with 1% antibiotic–antimycotic mixture (25 μg/mL amphotericin B, 10,000 μg/mL streptomycin sulfate, and 10,000 U/mL potassium penicillin), 1% L-glutamine, and complemented by 10% heat inactivated fetal bovine serum. […] This experiment was carried out according to the reported MTT assay method, and the absorbance was measured at 595 nm.

[2] = test system: human colon HCT-116 cancer cell line; test: MTT cytotoxicity assay, colon HCT-116 cancer cell line; settings: for IC50: Homo sapiens, HCT-116, read-out: IC50 (µg/mL) ± SD HCT-116
Procedure: as §3, §4

[3] = test system: human breast MCF-7 cancer cell line; test: MTT cytotoxicity assay, breast MCF-7 cancer cell line; format: cell-based; settings: Homo sapiens, MCF7; MTT, mean of three replicates; read-out: IC50 (µg/mL) ± SD MCF-7
Procedure: as §3, §4

[4] = test system: Escherichia coli ATCC25922; test: Well diffusion assay, Escherichia coli; format: cell-based
Procedure: (§5) The newly synthesized peptides 1–8 (compound 6 was not tested) was evaluated for their antimicrobial activity of against three pathogenic Gram-positive bacteria (Staphylococcus aureus ATCC25923, Streptococcus pneumoniaRCMB 010010, and Micrococcus Luteus), three pathogenic Gram-negative bacteria viz. Escherichia coli ATCC25922, Pseudomonas aeruginosa ATCC7853, and Proteus vulgaris RCMB 010085, and the yeast Candida albicans using the well diffusion method. […] The obtained data were documented for each derivative as the average diameter of the inhibition zones (IZ) in mm for the bacterial or the yeast growth around the discs (Table 2). […] Although Micrococcus Luteus bacteria is a normal commensal of human skin and the upper respiratory tract, it acts as an opportunistic pathogen and has been associated with various diseases including meningitis, septic arthritis, and endocarditis. […] Antimicrobial activity of the tested chemical peptides was determined by the well diffusion method for pathogenic bacteria having Gram-positive bacteria (Staphylococcus aureus ATCC25923, Streptococcus pneumonia, and Micrococcus luteus) and Gram-negative bacteria (Escherichia coli ATCC25922, Pseudomonas aeruginosa ATCC7853, and Proteus sp.) and Candida albicans as human pathogen yeast using the well diffusion method.

[5] = test system: Streptococcus pneumonia RCMB 010010; test: Well diffusion assay, Streptococcus pneumonia; format: cell-based; settings: Streptococcus pneumonia RCMB 010010, well diffusion
Procedure: as §5

Candida albicans = test: Well diffusion assay, Candida albicans; format: cell-based
Procedure: as §5

Human p53 = test: Estimation of human p53 level in MCF-7 cells (ELISA); format: cell-based
Excerpt: as §1, with “genes.” for “genes. Thus, since compound 5 produced the most promising cytotoxic activity against breast cancer cell lines with a safety profile against the normal cells, it was of interest to study its impact on the regulation of the oncogenic markers Bax, Bcl-2, and p53.”
Human p53 present in MCF-7 cells was determined; using Human p53 ELISA-Kit (CS0070 Sigma) read using spectrophotometer at 450 nm against untreated control cells (negative control) and doxorubicin (positive control) applying the standard protocols of the manufacturers. […] Then, the reaction was terminated by adding acid, and the absorbance was measured at 450 nm.

Tubulin Beta (TUBb) = biological target: T1, Tubulin Beta (TUBb) (Homo sapiens, UniProt P07437); test: ELISA kit for Tubulin Beta (TUBb), tubulin polymerization in MCF-7 cells; format: cell-based; settings: read-out: inhibition of tubulin polymerization IC50 (tubulin B) (converted)
T1 construct: endogenous in cells; host or cells: MCF-7
T1 sequence (P07437 whole entry): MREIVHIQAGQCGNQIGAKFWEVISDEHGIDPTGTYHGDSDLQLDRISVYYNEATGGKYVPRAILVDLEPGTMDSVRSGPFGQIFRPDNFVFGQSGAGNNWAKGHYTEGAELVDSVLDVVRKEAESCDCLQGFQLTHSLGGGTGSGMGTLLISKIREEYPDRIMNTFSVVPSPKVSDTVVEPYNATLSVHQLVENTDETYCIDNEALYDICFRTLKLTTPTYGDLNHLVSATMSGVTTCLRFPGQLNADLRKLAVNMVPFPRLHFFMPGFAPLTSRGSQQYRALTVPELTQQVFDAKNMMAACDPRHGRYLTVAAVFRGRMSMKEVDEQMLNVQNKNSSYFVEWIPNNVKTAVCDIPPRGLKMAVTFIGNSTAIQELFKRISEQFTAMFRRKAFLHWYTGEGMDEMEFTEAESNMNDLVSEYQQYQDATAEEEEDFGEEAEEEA
T1 sequence (P68363 whole entry partner): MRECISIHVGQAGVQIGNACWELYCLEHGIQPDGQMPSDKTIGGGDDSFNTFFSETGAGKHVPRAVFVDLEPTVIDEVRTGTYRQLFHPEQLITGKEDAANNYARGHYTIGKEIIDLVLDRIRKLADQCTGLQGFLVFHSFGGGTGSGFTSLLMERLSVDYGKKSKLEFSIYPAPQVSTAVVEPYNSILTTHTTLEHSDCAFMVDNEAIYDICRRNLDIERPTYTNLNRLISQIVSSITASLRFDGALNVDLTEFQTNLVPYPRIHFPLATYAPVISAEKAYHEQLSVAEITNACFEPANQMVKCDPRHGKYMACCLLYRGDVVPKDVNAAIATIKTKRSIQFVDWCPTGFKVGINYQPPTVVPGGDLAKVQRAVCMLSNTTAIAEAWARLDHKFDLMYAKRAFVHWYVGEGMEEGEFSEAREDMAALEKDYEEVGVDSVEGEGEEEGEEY
Excerpt: as §2

[6] = test system: Staphylococcus aureus ATCC25923; test: Well diffusion assay, Staphylococcus aureus; format: cell-based
Procedure: as §5

[7] = test system: human normal skin fibroblasts cell line BJ-1; test: Cytotoxicity against normal skin fibroblasts BJ-1; format: cell-based; settings: human, 10 µg/mL
Procedure: The frequency and severity of side effects to normal cells at therapeutic levels is one of the most critical factors that distinguish different anticancer drugs from each other. Accordingly, the GA peptides 1–8 were furthermore screened for their cytotoxicity at 10 µg/mL against the human normal skin fibroblasts cell line BJ-1 to determine their safety upon normal cells (Figure 4).

Bcl-2 = test: Estimation of Bcl-2 level in MCF-7 cells; format: cell-based, human; settings: MCF-7 cells treated at IC50 5 μg/mL for 24 h; untreated 7.20 ng/mL
Excerpt: as §1
The samples and standards having Bcl-2 were estimated as previously mentioned. […] Then, the reaction was terminated by adding acid, and the absorbance was measured at 450 nm.

MCF-7 cells = test: DNA fragmentation through DPA assay in MCF-7 cells; format: cell-based, human; settings: treated MCF-7 cells
Procedure: as §2
Assessment of DNA fragmentation of the cells was done, as described by the reported method. Briefly, the cells were lysed for 15 min on ice with 0.5% (v/v) Triton X-100, 20 mM EDTA, and […] Tris (pH 8.0). Then, the cells were centrifuged to separate intact chromatin from DNA fragments for 20 min, at 27,000 Xg. Measurement of the amount of DNA was done using a diphenylamine reagent, and the optical density was measured at 600 nm.

[8] = test system: Proteus vulgaris RCMB 010085; test: Well diffusion assay, Proteus vulgaris; format: cell-based; settings: Proteus vulgaris RCMB 010085, well diffusion
Procedure: as §5

Micrococcus Luteus = test: Well diffusion assay, Micrococcus Luteus; format: cell-based
Procedure: as §5

[9] = test system: Pseudomonas aeruginosa ATCC7853; test: Well diffusion assay, Pseudomonas aeruginosa; format: cell-based
Procedure: as §5

## COc1cccc2c1C(=O)c1c(O)c3c(c(O)c1C2=O)C[C@@](O)(C(=O)CO)C[C@@H]3O[C@H]1C[C@H](N)[C@H](O)[C@H](C)O1 [DOX, doxorubicin, reference compound]
Bax
  level of Bax protein: 259.2 pg/mL
caspase-3
  level of caspase-3: 650 ng/mL
caspase-7
  level of caspase-7: 1.9 ng/mL
[1]
  IC50: 0.54 ± 1 µg/mL (≈ 0.994 µM)
[2]
  IC50: 1.09 ± 3 µg/mL (≈ 2.01 µM)
[3]
  IC50: 7.07 ± 1 µg/mL (≈ 13 µM)

## CC1(C(=O)NCC(=O)NCC(=O)NCC(=O)NCC(=O)O)CCC2(C)CCC3(C)C(=CC(=O)C4C5(C)CCC(O)C(C)(C)C5CCC43C)C2C1 (stereo not drawn) [Compound 5, 1-(10-Hydroxy-2,4a,6a,6b,9,9,12a-heptamethyl-13-oxo-1,2,3,4,4a,5,6,6a,6b,7,8,8a,9,10,11,12,12a,12b,13,14b-icosahydropicen-2-yl)-1,4,7,10-tetraoxo-2,5,8,11-tetraazatridecan-13-oic Acid] (X1-GGGG-OH)
[4]
  Diameter of Inhibition Zone (mm): 18 ± 0.23 mm
[5]
  Diameter of Inhibition Zone (mm): 16 ± 0.12 mm
Candida albicans
  Diameter of Inhibition Zone (mm): 13 ± 0.17 mm
Human p53; MCF-7, 5 μg/mL, 24 h
  rise of p53 level versus untreated MCF-7: approximately six-fold
Human p53; MCF-7 cells treated at IC50 5 μg/mL for 24 h, untreated 111.07 Pg/mL
  level of p53: 679.8 pg/mL
Tubulin Beta (TUBb)
  IC50: 848 nM
[6]
  Diameter of Inhibition Zone (mm): 15 ± 0.15 mm
Bax
  level of Bax protein: 249.9 pg/mL
caspase-3
  level of caspase-3: 477 ng/mL
[7]
  cytotoxic effect on normal cells BJ-1: 20%
Bcl-2
  level of Bcl-2: 3.40 ng/mL
MCF-7 cells
  DNA fragmentation, times the percent in untreated cells: about 4.5 fold
MCF-7 cells; untreated 7.8%
  percentage of DNA fragmentation: 35%
caspase-7; MCF-7, 5 μg/mL, 24 h
  caspase-7 level elevation versus untreated cells: about a three-fold
caspase-7
  level of caspase-7: 0.9 ng/mL
[8]
  Diameter of Inhibition Zone (mm): 10 ± 0.17 mm
Micrococcus Luteus
  Diameter of Inhibition Zone (mm): 30 ± 0.15 mm
[9]
  Diameter of Inhibition Zone (mm): 17 ± 0.16 mm
[2]
  IC50: 5.2 ± 0.8 µg/mL (≈ 7.44 µM)
[2]; human, 10 µg/mL
  cytotoxicity percentage: 96.16%
[3]
  IC50: 5 ± 0.3 µg/mL (≈ 7.15 µM)
